Key:
[1] = biological target: T1, His6-HGFR (HGFR cytoplasmic domain) (Homo sapiens, UniProt P08581); assay: Inhibitory activity against HGFR tyrosine kinase activity (HTRF); format: biochemical; conditions: biotin-poly(GT), ATP, 30° C. 10 min
T1 construct: made in house; host or cells: Sf9 insect cells (Spodoptera frugiperda), baculovirus, pFastBac-HT vector
Outline: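 Sf9-expressed, Ni-NTA-purified N-terminal His6-tagged HGFR cytoplasmic domain (from Lys974), 30 ng, phosphorylates 250 ng biotin-poly(GT) in Hepes pH 7.4 with MgCl2, MnCl2 and Na3VO4. Reaction started with 4 μM ATP stock, run 10 min at 30° C, stopped with EDTA. Phosphotyrosine is detected by HTRF.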

[2] = test system: Human gastric cancer cells (MKN-45); assay: Inhibitory activity against the proliferation of human gastric cancer cells (MKN-45); format: cell-based; conditions: 72 h, MKN-45, 1% FBS RPMI1640, 3 days, Cell Counting Kit-8
Outline: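 MKN-45 cells seeded overnight in RPMI1640 with 1% FBS, then exposed to compound for 3 days at 37° C, 5% CO2. Viability read with CCK-8 after about 1.5 hrs, absorbance at 450 nm (reference 660 nm).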

T1 sequence (P08581 956-1390 limits assumed): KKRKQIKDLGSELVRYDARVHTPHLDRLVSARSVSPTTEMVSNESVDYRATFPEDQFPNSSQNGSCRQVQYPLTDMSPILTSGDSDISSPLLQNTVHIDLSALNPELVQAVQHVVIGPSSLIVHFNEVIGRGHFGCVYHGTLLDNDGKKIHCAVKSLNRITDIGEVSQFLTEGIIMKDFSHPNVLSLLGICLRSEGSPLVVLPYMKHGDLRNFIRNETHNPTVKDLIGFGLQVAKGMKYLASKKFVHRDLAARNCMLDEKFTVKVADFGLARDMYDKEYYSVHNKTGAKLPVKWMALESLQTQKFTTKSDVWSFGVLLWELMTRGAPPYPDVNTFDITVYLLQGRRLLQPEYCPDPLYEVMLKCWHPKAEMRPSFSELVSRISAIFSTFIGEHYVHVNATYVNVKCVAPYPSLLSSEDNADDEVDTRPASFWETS

## CN(C)[C@H]1CCN(C(=O)Nc2cc(Oc3ccc(NC(=O)C4(C(=O)Nc5ccc(F)cc5)CC4)c(F)c3)ccn2)C1 [Example 46, N-(4-{[2-({[(3S)-3-(Dimethylamino)pyrrolidin-1-yl]carbonyl}amino)pyridin-4-yl]oxy}-2-fluorophenyl)-N′-(4-fluorophenyl)cyclopropane-1,1-dicarboxamide]
[1]
  IC50: 64 nM
[2]
  IC50: 14 nM

Source: patent publication US7855290B2, “Pyridine derivatives and pyrimidine derivatives (3)” (Eisai R&D Management Co., Ltd., priority 2005, dated 2010)
